These results are taken from US20150037399A1, “NOVEL USE OF PIPOXOLAN AND ITS PHARMACEUTICAL COMPOSITION” (China Medical University, priority 2013, published 2015).

Assay [1] relates to cerebral infarction area in the brain of ischemic rats. Briefly: Transient focal cerebral ischemia-reperfusion model, infarct area (TTC staining). Format: in vivo, Sprague-Dawley (SD) rats. The settings on record: 24 hr after reperfusion, vs control group. As to the method: Animals are male Sprague-Dawley (SD) rats, weighing 225-275 g and male ICR mice, weighing 25-30 g were purchased from BioLASCO Co. Ltd. (Taipei, Taiwan). All animals were fed regular chow and housed in standard cages at a constant temperature of 22±1° C. and relative humidity of 55±5% with 12 hr inverted light-dark cycle for 1 week prior to the experiments. Surgery was performed under zoletil® anesthesia. Five to six animals were used to obtain consistent data in each group. Pipoxolan was dissolved in dimethylsulfoxide (DMSO) and diluted in tissue culture medium before use. Focal ischemia was induced by occlusion of both common carotid arteries (CCA) and the right middle cerebral artery (MCA). Eighteen rats were randomly assigned to 3 treatment groups, six rats for each group. Group 1 rats were treated with saline and groups 2 and 3 treated with pipoxolan (10 mg/kg and 30 mg/kg, respectively). Rats were fasted overnight with free access to water. […] After 24 hr, all rats were alive and neurobehavioral deficits evaluation and infarct assessment were performed Twenty four hours following reperfusion, neurological function of rats was assessed. […] The image of each section was digitized and the infarct area was determined morphometrically using Image-Pro Plus 6.0 (Media Cybernetics, Md., USA).

The test system of another assay is PCNA-positive cells. Briefly: Carotid ligation model, PCNA antibody staining of the carotid artery. The format is in vivo, ICR mice. The settings on record: mice. As to the method: Male ICR mice, weighing 20 to 25 g, were used as a carotidligation model. Fifteen mice were randomly assigned to 3 treatment groups, five mice for each group. All mice were fasted overnight with free access to water, then anesthetized with zoletil® (25 mg/kg i.p.). Carotid ligation was performed by a midline neck incision and the left common carotid artery exposed. The carotid artery was completely ligated just proximal to the carotid bifurcation, and the right carotid artery served as a non-injured control artery. The incision was closed after ligation, and the animals were allowed to recover. On the day of carotid ligation, mice were randomized into 3 treatment groups and anesthetized as described. Group 1 mice were treated with saline and groups 2 and 3 treated with pipoxolan (10 mg/kg and 30 mg/kg, respectively). Subsequent pipoxolan and saline treatments were given by gastric gavage on the second day after carotid ligation and once daily for 28 days. […] Images were digitized and analyzed with Image-Pro software. The areas of the lumen, internal elastic lamina (IEL), and external elastic lamina (EEL) were determined by computerized planimetry. The intima area was calculated by subtracting the luminal from the IEL area, and media area was determined by subtracting the IEL area from the EEL area. The ratio of intima to media area (I/M ratio) was calculated and analyzed. […]

The test system of assay [2] is PDGF-BB-induced migration of A7r5 cells (VSMCs). Briefly: Transwell migration assay. The format is cell-based. The settings on record: PDGF-BB 30 ng/ml 48 hr, vs PDGF-BB control, read-out: percent inhibition of cell migration across the membrane. As to the method:
The VSMCs cell line A7r5 was purchased from Bioresource Collection and Research Center (Hsinchu, Taiwan). A7r5 cells were plated onto 6-well plates in DMEM, supplemented with 10% FBS, 100 units/ml penicillin, 100 μg/ml streptomycin and 2 mM L-glutamine and grown at 37° C. under a humidified 5% CO2 and 95% air at one atmosphere. Effects of pipoxolan on VSMCs migration were further investigated by a transwell migration chamber with a collagen-coated polycarbonate filter. A7r5 cells (2×10^5 cells) were seeded on a transwell apparatus (a 6.5-mm polyethylene terephthalate membrane with 8-μm pores) and treated with pipoxolan (0, 5, 10 and 15 μM) in the presence of PDGF-BB (30 ng/ml) for 48 hr. The cells were then trypsinized, resuspended in 0.5% FBS medium. FBS/DMEM (10%) was added to the bottom chamber of each well as the chemoattractant. Cells were allowed to migrate for 8 hr through the membrane to the underside of the apparatus. Cells were then fixed with methanol for 10 min and stained with Giemsa solution for 30 min. The cells migrating to the lower outside of the insert membrane were counted manually using a microscope and the NIS-Elements software.

The subject of a further assay is MMP-2. Description: Western blot of MMP-2 in PDGF-BB-stimulated VSMCs. The format is cell-based. How it is done:
The role of matrix metalloproteinase-2/9 (MMP-2/9) and the Ras/MEK/ERK signaling pathways were used to evaluate the effect of pipoxolan on VSMCs migration. The protein expression levels were determined by Western blot analysis. Each vertical bars represented mean±S.E. **p<0.01 and ***p<0.001 compared with control group (n=6 in each group).
(A western blot detects proteins with antibodies after separation by electrophoresis.)

`Cl.O=C1OC(CCN2CCCCC2)OC1(c1ccccc1)c1ccccc1` (stereo not drawn) [pipoxolan, 5,5-diphenyl-2-(2-piperidin-1-ylethyl)-1,3-dioxolan-4-one hydrochloride]: the “percent reduction of cerebral infarction” value in assay [1] (10 mg/kg p.o. 1 hr prior to ischemia) was found to be 43.18%; in assay [1] (30 mg/kg p.o. 1 hr prior to ischemia), 73.43%. The “percent inhibition of PCNA-positive cells” value came out at 42.11% in the assay on PCNA-positive cells (10 mg/kg p.o. once daily for 28 days after carotid ligation) and 62.40% in the assay on PCNA-positive cells (30 mg/kg p.o. once daily for 28 days after carotid ligation). Also, the inhibition at 5 µM in assay [2] (5 μM) amounted to 46.2%. Moreover, the inhibition at 10 µM in assay [2] (10 μM) was 62.2%. Moreover, the inhibition at 15 µM in assay [2] (15 μM) amounted to 76.5%. Besides, the entries for the “reduction of MMP-2 protein level” value in the assay with MMP-2 (10 μM) and in the assay with MMP-2 (15 μM) were 12.4% and 24.4%, respectively.
